From publication PMC7969469 (Cancer research, 2021)

Tested on: invadopodia formation
Assay: Invadopodia formation with ROCK inhibitor
Format: cell-based
Details: ROCK inhibition, Supplementary Figure S6C

Q: How did the “effect on invadopodia formation” value turn out when `O=S(=O)(c1cccc2cnccc12)N1CCCNCC1` [Fasudil] was run?
A: affected neither
